Results on 20 compounds are retold here after patent publication US9630978B2, “Polycyclic-carbamoylpyridone compounds and their pharmaceutical use” (Gilead Sciences, Inc., priority 2015, dated 2017).

pEC50: −log10 of the molar value. Like-named read-outs stand apart in the source and are kept apart here.

Holding throughout (assay type): cell-based
Data set [1] deals with HIV-IIIb. Description: Antiviral assay in MT4 cells. The settings on record: MT4 cells infected with HIV-IIIb (0.004 m.o.i.), 5 days incubation, CellTiter-Glo, average over assays. The method, then: (§1) For the antiviral assay utilizing MT4 cells, 0.4 μL of 189X test concentration of 3-fold serially diluted compound in DMSO was added to 40 μl of cell growth medium (RPMI 1640, 10% FBS, 1% penicillin/streptomycin, 1% L-Glutamine, 1% HEPES) in each well of 384-well assay plates (10 concentrations) in quadruplicate.
(§2) 1 mL aliquots of 2×10^6 MT4 cells are pre-infected for 1 and 3 hours respectively at 37° C. with 25 μL (MT4) or of either cell growth medium (mock-infected) or a fresh 1:250 dilution of an HIV-IIIb concentrated ABI stock (0.004 m.o.i. for MT4 cells). Infected and uninfected cells are diluted in cell growth medium and 35 μL of 2000 (for MT4) cells is added to each well of the assay plates.
(§3) Assay plates were then incubated in a 37° C. incubator. After 5 days of incubation, 25 μL of 2× concentrated CellTiter-Glo™ Reagent (catalog # G7573, Promega Biosciences, Inc., Madison, Wis.) was added to each well of the assay plate. Cell lysis was carried out by incubating at room temperature for 2-3 minutes, and then chemiluminescence was read using the Envision reader (PerkinElmer).
Background: Cellular ATP, detected with luciferase, serves as a proxy for viable cell number.

Data set [2] in a line: Cytotoxicity (CC50) in MT4 cells within the antiviral assay. The note with it: human, MT4 cells (mock-infected); MT4 cells, 5 days incubation, CellTiter-Glo; average over assays. How it is done: as §1, §2, §3
The subject of data set [3] is MT4 cells. Described as above. The method, then:
as §1, §2, §3

Setting [4] is: Human immunodeficiency virus 1, IIIB, MT4, 120 h.
The mark [5] stands for this setting: MT4 cells, 5 days incubation, CellTiter-Glo, average over assays, read-out: CC50.

As usually defined, the pEC50 is the negative decadic logarithm of the EC50, by convention in mol/L. Broadly, the CC50 is the concentration that lowers cell viability or growth by half. `O=C(NCc1ccc(F)c(Cl)c1F)c1cn2c(c(O)c1=O)C(=O)N1CCO[C@]13CCCC[C@H]23` (racemic) [Compound 96]: the pEC50 in data set [1] (setting [4]) was 8.35. The compound further came in with a CC50 at 5 days in data set [2] of 1370 nM.

In turn, `O=C(NCc1ccc(F)c(Cl)c1F)c1cn2c(c(O)c1=O)C(=O)N1CCS[C@]13COCC[C@H]23` (racemic) [Compound 103] showed a pEC50 in data set [1] (setting [4]) of 8.92. The CC50 in data set [3] (setting [5]) amounted to 10800 nM.

In the case of `C[C@@H]1CN2C(=O)c3c(O)c(=O)c(C(=O)NCc4ccc(F)c(Cl)c4F)cn3[C@@H]3CCC[C@@]32O1` (single isomer, unassigned) [Compound 74], the pEC50 in data set [1] (setting [4]) was 8.50. The same compound yielded a CC50 at 5 days in data set [2] of 5770 nM.

Take `O=C(NCc1ccc(F)c(Cl)c1F)c1cn2c(c(O)c1=O)C(=O)N1CC=CC[C@]13CCOC[C@H]23` [Compound 14]: the pEC50 in data set [1] (setting [4]) was 8.34. Besides, in data set [3] (setting [5]), the cytotoxic concentration (CC50) was 8020 nM.

For the compound `O=C(NCc1ccc(F)c(Cl)c1F)c1cn2c(c(O)c1=O)C(=O)N1CCCC[C@]13CCOC[C@H]23` [Compound 15], in data set [1], the pEC50 is 8.33. Moreover, the 50% cytotoxic concentration (CC50) in data set [3] was found to be 7520 nM.

On to `O=C(NCc1ccc(F)c(Cl)c1F)c1cn2c(c(O)c1=O)C(=O)N1CC=CC[C@]13COCC[C@H]23` [Compound 25], for which the pEC50 in data set [1] is 8.62. Besides, in data set [3] (setting [5]), the CC50 came to 22100 nM.

For the compound `O=C(NCc1ccc(F)c(Cl)c1F)c1cn2c(c(O)c1=O)C(=O)N1CCCC[C@]13COCC[C@H]23` [Compound 26], the pEC50 in data set [1] is 8.58. Half-maximal cytotoxicity in data set [3] (CC50) was put at 22100 nM.

With `O=C(NCc1c(F)cc(F)cc1F)c1cn2c(c(O)c1=O)C(=O)N1CC=CC[C@]13COCC[C@H]23` [Compound 30], the pEC50 in data set [1] (setting [4]) is 8.59. Besides, the CC50 at 5 days in data set [2] is 33100 nM.

`O=C(NCc1c(F)cc(F)cc1F)c1cn2c(c(O)c1=O)C(=O)N1CCCC[C@]13COCC[C@H]23` [Compound 31] had a pEC50 in data set [1] (setting [4]) of 8.71. For the same compound, the CC50 in data set [3] (setting [5]) was found to be 33600 nM.

For `O=C(NCc1ccc(F)c(Cl)c1F)c1cn2c(c(O)c1=O)C(=O)N1CC=CC[C@]13COC[C@H]23` [Compound 41], the pEC50 in data set [1] (setting [4]) is 8.62. In addition, the CC50 at 5 days in data set [2] turned out to be 9190 nM.

The compound `O=C(NCc1ccc(F)c(Cl)c1F)c1cn2c(c(O)c1=O)C(=O)N1CCCC[C@]13COC[C@H]23` [Compound 42] had a pEC50 in data set [1] (setting [4]) of 8.46. Besides, in data set [2], the CC50 at 5 days came out at 7480 nM.

Regarding `C[C@@H]1CO[C@@]23CCC[C@@H]2n2cc(C(=O)NCc4ccc(F)c(Cl)c4F)c(=O)c(O)c2C(=O)N13` [Compound 65], the pEC50 in data set [1] (setting [4]) is 8.38. For the same compound, half-maximal cytotoxicity in data set [2] (CC50 at 5 days) was put at 5530 nM.

In data set [1] (setting [4]), `C[C@@H]1CO[C@@]23CCC[C@@H]2n2cc(C(=O)NCc4c(F)cc(F)cc4F)c(=O)c(O)c2C(=O)N13` [Compound 66] showed a pEC50 of 8.60. The CC50 at 5 days in data set [2] amounted to 6920 nM.

Take `C[C@H]1CO[C@]23CCC[C@H]2n2cc(C(=O)NCc4ccc(F)c(Cl)c4F)c(=O)c(O)c2C(=O)N13` [Compound 69]: the pEC50 in data set [1] (setting [4]) was 8.10. In addition, the CC50 at 5 days in data set [2] was determined as 15600 nM.

For `C[C@H]1CO[C@]23CCC[C@H]2n2cc(C(=O)NCc4c(F)cc(F)cc4F)c(=O)c(O)c2C(=O)N13` [Compound 70], the pEC50 in data set [1] (setting [4]) was 8.33. It took 16400 nM to reach half-maximal cytotoxicity in data set [2] (CC50 at 5 days).

`C[C@@H]1CN2C(=O)c3c(O)c(=O)c(C(=O)NCc4ccc(F)c(Cl)c4F)cn3[C@H]3CCC[C@]32O1` [Compound 73] gave a pEC50 in data set [1] of 8.42. For the same compound, the CC50 in data set [3] is 3320 nM.

With `C[C@@H]1CCO[C@@]23CCC[C@@H]2n2cc(C(=O)NCc4ccc(F)c(Cl)c4F)c(=O)c(O)c2C(=O)N13` [Compound 77], the pEC50 in data set [1] (setting [4]) was 8.15. The cytotoxic concentration (CC50) at 5 days in data set [2] came out at 7270 nM.

In turn, `C[C@H]1CCO[C@]23CCC[C@H]2n2cc(C(=O)NCc4ccc(F)c(Cl)c4F)c(=O)c(O)c2C(=O)N13` [Compound 80] gave a negative-log EC50 (pEC50) in data set [1] (setting [4]) of 7.93. In data set [3] (setting [5]), the CC50 was determined as 17500 nM.

Regarding `C[C@@H]1CO[C@@]23CCOC[C@@H]2n2cc(C(=O)NCc4ccc(F)c(Cl)c4F)c(=O)c(O)c2C(=O)N13` [Compound 94], in data set [1], the pEC50 is 8.73. This compound showed a CC50 at 5 days in data set [2] of 3990 nM.

In data set [1] (setting [4]), `C[C@@H]1CO[C@@]23CCOC[C@@H]2n2cc(C(=O)NCc4ccc(F)c(Cl)c4F)c(=O)c(O)c2C(=O)N13` [Compound 100] gave a pEC50 of 8.74. The CC50 in data set [3] (setting [5]) was 7530 nM.
